Laboratory results taken from patent US20090105171A1, “Methods for Regenerating and Repairing Damaged Tissues Using Adrenomedullin” (priority 2005, published 2009).

Columns and labels:
[1] = test system: peripheral blood mononuclear cells; assay: Dynamics of bone marrow cells after AM administration: peripheral blood mononuclear cells and Sca-1-positive cells; assay type: in vivo, C57BL/6 mice
Description: First, to investigate whether AM has an effect on the dynamics of bone marrow cells, AM or physiological saline was administered randomly to model animals. As the model animals, 48 ten-week old female C57BL/6 mice were used. The transgenic mice (C57BL/6 background) which ubiquitously express green fluorescence protein (GFP) were kindly offered by Professor Masaru Okabe (Osaka University, Japan) (Okabe M, Ikawa M, Kominami K, Nakanishi T, Nishimune Y. ‘Green mice’ as a source of ubiquitous green cells. FEBS Lett 1997; 407: 313-319).
AM (1 μg, 2 μg, or 5 μg in 100 μl physiological saline) was randomly administrated to the C57BL/6 mice (each, n=8) by intraperitoneal injection every day for five days. The control mice were similarly administered with 100 μl physiological saline every day for five days (n=8).
Furthermore, AM or physiological saline was administered to other mice (each, n=8) with a subcutaneous osmotic mini-pump (Alzet, Palo Alto, Calif.) at a delivery rate of 0.05 μg/kg/min for five days. Blood samples were collected on day 5, and mononuclear cells were isolated using Histopaque-1083 (Sigma) by a method known to those skilled in the art (Asahara T, Takahashi T, Masuda H, Kalka C, Chen D, Iwaguro H, Inai Y, Silver M, Isner J M. VEGF contributes to postnatal neovascularization by mobilizing bone marrow-derived endothelial progenitor cells. EMBO J 1999; 18: 3964-3972). The mononuclear cells were counted manually and analyzed with respect to the expression of Sca1-FITC (Sca-1-positive cells: BD Pharmingen, San Diego, Calif.). The immunofluorescence-labeled cells were analyzed by a quantitative flow cytometry using the FACSCalibur Flow Cytometer (BD Biosciences, Mountain View, Calif.). An antibody with the same isotype (BD Pharmingen) was used as a control.

[2] = test system: bone marrow-derived cells in the elastase-administered lungs; assay: Homing and differentiation of bone marrow cells in elastase-treated GFP-positive bone marrow chimeric mice; assay type: in vivo, C57BL/6 mice; conditions: AM group vs physiological saline group, day 28 after elastase injection
From the text: C57BL/6GFP-positive bone marrow chimeric mice were established for evaluating the dynamics of bone marrow cells.
The above-mentioned bone marrow chimeric mice were produced by a method known to those skilled in the art (Sata M, Saiura A, Kunisato A, Tojo A, Okada S, Tokuhisa T, Hirai H, Makuuchi M, Hirata Y, Nagai R. Hematopoietic stem cells differentiate into vascular cells that participate in the pathogenesis of atherosclerosis. Nat Med 2002; 8: 403-409). To put it briefly, a lethal dose of radiation (900 cGy) was applied to wild-type recipient C57BL/6 mice, and bone marrow cells (3×10^6 cells/300 μl) derived from the GFP mouse were transplanted through the tail vein. In order to quantify the reconstitution of mouse bone marrow, mononuclear cells and bone marrow cells in the peripheral blood were analyzed by flow cytometry four weeks after the bone marrow transplant. The percentages of the GFP-positive peripheral blood mononuclear cells and bone marrow cells in the chimeric mice were 87% to 93% and 85% to 90%, respectively, showing that the original stem cell group was replaced by the donor cell group.
Four weeks after the bone marrow transplant, swine pancreatic elastase (200 units/kg; Sigma, St. Louis, Mo.) was injected intratracheally to the chimeric mice. These mice were divided into two groups: the elastase-treated mice to be administered with physiological saline, and those to be administered with AM (each, n=5).
28 days after the injection of elastase (n=5) or saline solution (n=5), frozen sections were prepared from the lungs of the GFP-positive chimeric mice. The number of GFP-positive cells in the alveolar wall was counted and the result was indicated as the number per 100 alveoli. […] The numbers of GFP/cytokeratin double-positive cells and GFP/vWF double-positive cells were counted, and the results were indicated as the number per 100 alveoli. […]

[3] = test system: elastase-induced pulmonary emphysema; assay: Morphological and functional analyses of elastase-treated mice administered with AM; assay type: in vivo, C57BL/6 mice; conditions: day 28
Description: The remaining 42 mice were used to examine whether AM improves lung structure and lung function in elastase-induced pulmonary emphysema. The mice were intratracheally injected with swine pancreatic elastase (200 units/kg) or physiological saline at random, and assigned to continuous infusion of either AM or physiological saline. Based on this protocol, the following three groups were prepared: the sham treated mice administrated with physiological saline (the sham treated group, n=14), elastase-treated mice administered with physiological saline (the physiological saline group, n=14), and elastase-treated mice administrated with AM (the AM group, n=14). Each of the above-mentioned Examples was carried out according to the guidelines of Animal Management Ethics Committee of the National Cardiovascular Center (Osaka, Japan).
In fact, in the present invention, findings about lung functions (increase in lung volume and static lung compliance) and morphological findings (increase in the average alveolar diameter) confirmed that emphysematous changes were induced in the lungs by intratracheal injection of elastase, and these findings are consistent with the results from previous studies (Hayes J A, Korthy A, Snider G L. The pathology of elastase-induced panacinar emphysema in hamsters. J Pathol 1975; 117: 1-14; Kuraki T, Ishibashi M, Takayama M, Shiraishi M, Yoshida M. A novel oral neutrophil elastase inhibitor (ONO-6818) inhibits human neutrophil elastase-induced emphysema in rats. Am J Respir Crit Care Med 2002; 166: 496-500). 28 days after the injection of elastase or physiological saline, the mice were anesthetized and their static lung compliance was measured using a computer-controlled small animal ventilator (FlexiVent; Scireq, Montreal, PQ, Canada) (n=7). Lungs were excised and then fixed for 24 hours, while the transpulmonary pressure was maintained at 25 cm H2O (n=7). The lung volume was measured by Scherle's method (Scherle W. A simple method for volumetry of organs in quantitative stereology. Mikroskopie 1970; 26: 57-60). The mean linear intercept, a morphometric parameter of pulmonary emphysema, was calculated for 20 randomly selected regions with a light microscope using a method known to those skilled in the art (Thurlbeck W M. Internal surface area and other measurements in emphysema. Thorax 1967; 22: 483-496). Morphological examination was conducted in a blind manner by three observers.
Further, paraffin sections were obtained from the lungs (n=7), and the tissue sections were stained for vWF to examine whether AM induced angiogenesis in the elastase-administered lungs. Three observers counted the number of vWF-positive blood vessels per mm^2 in a blind test manner.

[4] = test system: bone marrow-derived cells in ischemic cardiac muscle; assay: Dynamic analysis of bone marrow-derived cells in a rat model of myocardial infarction; assay type: in vivo, GFP chimeric rats; conditions: acute myocardial infarction, AM 0.05 μg/kg/min subcutaneously for seven days vs control group
Description: Acute myocardial infarction was produced in GFP chimeric rats (rats expressing GFP in the bone marrow cells) by thoracotomy and then ligation of the anterior descending coronary artery (Fujii T. et al., Am J Physiol Heart Circ Physiol. 288(3): H1444-50, 2005).
After local ischemia is created in the heart by ligation, 0.05 μg/kg/min of AM (the AM group) or 0.9% physiological saline (the control group) was subcutaneously administered for seven days via an osmotic pressure pump.
After acute myocardial infarction was produced, the distributions of bone marrow-derived cells (confirmed by GFP expression), vascular endothelial cells (confirmed by vWF, an endothelial cell marker), and cardiac muscle cells (confirmed by desmin, a cardiac muscle cell marker) in the myocardial infarct area were confirmed. Further, the total sum of the GFP-expressing cell number, vWF-expressing cell number, and desmin-expressing cell number was examined to confirm the states of regeneration of blood vessel and cardiac muscle in the AM group and control group.

[5] = elastase-treated mice, continuous AM infusion

## adrenomedullin [AM]
[1]; AM 1 μg/animal, intraperitoneal injection every day for five days, day 5
  number of the peripheral blood mononuclear cells: 120 % of the physiological saline group
[1]; AM 5 μg/animal, intraperitoneal injection every day for five days, day 5
  number of the peripheral blood mononuclear cells: 140 % of the physiological saline group
[1]; AM 1, 2 or 5 μg intraperitoneal every day for five days, day 5
  number of the peripheral blood mononuclear cells (dose dependence): increased in a dose-dependent manner
[1]; continuous AM, subcutaneous osmotic mini-pump 0.05 μg/kg/min for five days, day 5
  number of the peripheral blood mononuclear cells: 131 % of the physiological saline group
[1]; continuous AM, subcutaneous osmotic mini-pump 0.05 μg/kg/min for five days, day 5, flow cytometry
  frequency of Sca-1-positive cells: 200 % of the physiological saline group
[2]
  number of GFP-positive cells incorporated in the lung (alveolar wall, per 100 alveoli): significantly larger
  number of GFP/cytokeratin double-positive cells (per 100 alveoli): significantly larger
  number of GFP/vWF double-positive cells in the alveolar wall: larger
[3]; elastase-administered lungs, AM vs physiological saline group
  number of vWF-positive lung blood vessels: significantly increased
[3]; elastase-injected mice, continuous AM infusion
  histological changes (air space enlargement accompanied by destruction of the alveolar wall): decreased
[3]; [5]
  average alveolar diameter (mean linear intercept): increase over the sham treated group: reduced
  increase in static lung compliance: significantly reduced
  magnitude of the increase in lung volume: reduced
[4]
  regeneration of cardiac muscles by bone marrow-derived cells (GFP- and desmin-expressing cells): significantly enhance
  revascularization by bone marrow cells (GFP- and vWF-expressing cells): significantly increase
